Experiments:
[1] = target: T1, HLA-DR3 on VAVY cells (HLA-DRβ1-Arg74 positive) (Homo sapiens, UniProt P01903+P01911, A100K/A102G/A103R/A169T/F55Y/I96L/K41T/L162R/M171V/P40S/Q125H/Q178H/Q39Y/R42S/S66N/T106N/T262R/W38E/Y61H); assay: Tg.2098 peptide binding to VAVY cells, flow cytometry; assay type: cell-based; settings: 0.025 mM Ia, 7 h pre-incubation; 0.5 μM Tg.2098, 24 h; 42.7% without Ia
T1 construct: VAVY B-cell line that is homozygous for DR3 (confirmed to contain DRβ1-Arg74); host or cells: VAVY B-cell line
Method: VAVY cells (European Collection of Cell Cultures) were cultured in RPMI (ATCC, Manassas, Va.) supplied with 10% FBS (Sigma-Aldrich, St. Louis, Mo.), 1% Penicillin-Streptomycin (Corning, N.Y.), 2 mM glutamine (Corning, N.Y.) and […] ciprofloxacin hydrochloride (Hospira, Lake Forest, Ill.). Cells were grown at 37° C., 5% CO2 and passaged 1-2 times a week. Cells expressing DR2 (National Development and Research Institutes, Inc) were cultured using the same conditions as VAVY cells. N-terminal biotinylated peptide Tg.2098 was used to test for binding to VAVY cells which express HLA-DR3 on their surface (HLA-DRβ1-Arg74 positive). APC Streptavidin (BD Biosciences, Franklin Lakes, N.J.) was used to detect the biotinylated peptides. A scrambled peptide of Tg.2098 (scr2098) was used as a negative control. VAVY cells were seeded at 2.5×10^6 cells/mL in a 24-well plate (BD Biosciences) and pre-incubated for 7 hours with 0.025 mM of compound Ia or 40% Captisol (Ligand Pharmaceuticals, Inc, La Jolla, Calif.) [the vehicle used to dissolve test compound in this experiment], before 0.5 μM Tg.2098 was added. After 24 h incubation, cells were stained with PE mouse anti-human HLA-DR (BD Biosciences) and APC Streptavidin to detect binding of the peptide to VAVY cells and the inhibitory effect of Compound Ia. Inhibition was analyzed by flow cytometry. As a negative control, cells expressing HLA-DR2 were pre-incubated with example Ia or 40% Captisol, before biotinylated myelin basic protein (MBP) 87-99 (known binder to HLA-DR2) was added and incubated for 24 hours. HLA-DR2 cells were stained with PE mouse anti-human HLA-DR and APC Streptavidin to detect binding of biotinylated MBP87-99 to DR2 expressing cells and to assess the inhibitory effect of compound Ia on peptide binding. To confirm the ELISA results we performed binding inhibition studies using the VAVY B-cell line that is homozygous for DR3 (confirmed to contain DRβ1-Arg74). […]

HLA-DRβ1-Arg74 = target: T2, HLA-DRβ1-Arg74 (Homo sapiens, UniProt P01903+P01911, A100K/A102G/A103R/A169T/F55Y/I96L/K41T/L162R/M171V/P40S/Q125H/Q178H/Q39Y/R42S/S66N/T106N/W38E/Y61H); assay: In Vitro Arg74 Blocking Test (DELFIA immunoassay, APO peptide binding); settings: 10 μM biotinylated APO; 48 h at 37° C.; serial dilution 0.2 to 0.0125 mM; read-out: approximate IC50, inhibition of APO binding to HLA-DRβ1-Arg74
T2 construct: extracellular portion of the DRB1*0301 β chain fused to the coiled coil region; coiled coil region of the basic leucine zipper domain of JunB; TEV protease cutting site (internal)
Description: HLA-DRβ1-Arg74 protein (containing arginine at position 74 on the β chain) was produced using the baculovirus system. We designed 2 constructs for both the α and β chains of HLA-DR. The β-chain construct contained the extracellular portion of the DRB1*0301 β chain fused to the coiled coil region of the basic Leucine zipper domain of JunB, and the α chain construct contained the extracellular portion of the DR α chain fused to the coiled coil region to the basic Leucine zipper domain of Fos. A TEV protease cutting site was introduced in each chain to allow removal of the dimerization motif. The JunB and Fos dimerization motifs allowed the protein to dimerize and form the final HLA-DRβ1-Arg74 protein. […]
Test compounds were dissolved in 100% DMSO and tested for their ability to bind to the HLA-DRβ1-Arg74 pocket and block it from binding the peptide using an immunoassay we developed for this purpose, which will be referred to as the “In Vitro Arg74 Blocking Test”. […] Time-resolved fluorescence was measured using the BMG reader (BMG Labtech, Cary, N.C.). […] Percent inhibition was calculated by the following formula: 100−100×[HLA-DRβ1-Arg74-APO-small molecule/HLA-DRβ1-Arg74-APO (no small molecule)])
To gauge the potency of the small molecules we determined the percent inhibition at decreasing concentrations of test molecules. […]

T2 sequence (P01903 26-216 limits assumed, other chains not shown): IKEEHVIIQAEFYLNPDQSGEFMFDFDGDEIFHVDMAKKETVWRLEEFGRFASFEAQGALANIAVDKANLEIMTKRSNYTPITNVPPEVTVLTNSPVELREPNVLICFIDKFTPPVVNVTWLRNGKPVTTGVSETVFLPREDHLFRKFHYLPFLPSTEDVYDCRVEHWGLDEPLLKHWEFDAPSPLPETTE
T1 sequence (P01903 26-254, other chains not shown): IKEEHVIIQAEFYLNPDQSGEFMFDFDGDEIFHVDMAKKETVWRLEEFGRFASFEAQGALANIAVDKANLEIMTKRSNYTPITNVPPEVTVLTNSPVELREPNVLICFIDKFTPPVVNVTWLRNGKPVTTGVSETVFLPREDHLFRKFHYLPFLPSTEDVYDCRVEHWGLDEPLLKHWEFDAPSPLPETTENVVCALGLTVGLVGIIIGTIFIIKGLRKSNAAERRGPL

SMILES: COc1ccc2cc1Oc1ccc(cc1)C[C@H]1c3c(cc4c(c3Oc3cc5c(cc3OC)CCN(C)[C@@H]5C2)OCO4)CCN1C [Compound Ia, cepharanthine]
- binding of Tg.2098 to VAVY cells in the presence of Ia [1]: 16.6%
- IC50 (HLA-DRβ1-Arg74): ~80 µM
